Patent publication US5952307A, “Basic α-aminoalkylphosphonate derivatives” (priority 1997, dated 1999)
Read-outs that look alike come from different tables or passages of the source.

Tests used:
Assay type in all cases: biochemical
bovine trypsin [1] = target: T1, bovine trypsin (Bos taurus, UniProt P00760); assay: Inactivation rate of bovine trypsin, incubation method; conditions: Table III; enzyme 0.06-0.5 μM, inhibitor 0.25-42 μM, 9% DMSO, 25° C.; NI = no inhibition
T1 sequence (P00760 24-246): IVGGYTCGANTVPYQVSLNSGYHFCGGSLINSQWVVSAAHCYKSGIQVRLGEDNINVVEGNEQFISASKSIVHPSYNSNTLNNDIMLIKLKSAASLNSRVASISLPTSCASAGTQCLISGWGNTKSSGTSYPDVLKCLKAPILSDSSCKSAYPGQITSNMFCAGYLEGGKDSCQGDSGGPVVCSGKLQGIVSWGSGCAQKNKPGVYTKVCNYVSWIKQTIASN

human thrombin = target: T2, human thrombin (Homo sapiens, UniProt P00734); conditions: 25° C., NI = no inhibition
T2 construct: bovine trypsin, human thrombin
Method: (§1) Inactivation rates of serine proteases by aryl diesters of peptidyl derivatives of α-aminoalkylphosphonates were measured by the incubation method. An aliquot of inhibitor (25 or 50 μl) in Me2 SO was added to a buffered enzyme solution (0.01-2.3 μM) to initiate the inactivation. Aliquots (50 μl) were withdrawn at various intervals and the residual enzymatic activity was measured. Me2 SO concentration in the reaction mixture was 8-12% (v/v). A 0.1 M HEPES, 0.01 M CaCl2, pH 7.5 buffer was utilized for trypsin and trypsin-like enzymes. A 0.1 M HEPES, 0.5 M NaCl, pH 7.5, was utilized for the other serine proteases. Peptide thioesters or peptide nitroanilides with the appropriate sequences were used as substrates for various serine proteases. All peptide thioesters hydrolysis rates were measured with the assay mixture containing 4,4'-dithiodipyridine {ε324 =19800 M^-1 cm^-1; Grasetti & Murray, Arch. Biochem. Biophys. 1967, 119, 41-48}. Peptide 4-nitroanilide hydrolysis was measured at 410 nm {ε410 =8800 M^-1 cm^-1; Erlanger et al., Arch. Biochem. Biophys. 1961, 95, 271-278}.
(§2) ^a Enzyme was incubated with the inhibitor in 250 μL of the proper
(§3) buffer at 25° C. Specifically, the inhibition reation mixtures wer
(§4) Hepes, pH 7.5 buffer containing 1 mM CaCl2 and 8% DMSO; 0.07 μM
thrombin, 0.25-42 μM inhibitor in an 80 mM Hepes, pH 7.5 buffer
(§5) containing 428 mM NaCl and 8% DMSO; 0.07 μM tryptase, 20-66 μM
(§6) DMSO. Aliquots of 25 μL were withdrawn at various intervals and the
(§7) residual enzymatic activity was measured as described in experimental
(§8) section. The kobs values were calculated from pseudofirst-order
(§9) ^a Enzyme (0.06-0.5 μM) was incubated with the inhibitor (0.25-42
(§10) μM) in 250 μL of the proper buffer containing 9% DMSO at 25°
(§11) C. The final inhibition reaction mixtures are given in the footnote to
(§12) Table 1. Aliquots of 25 μL were withdrawn at various intervals and the […]

mast cell tryptase = mast cell tryptase (Homo sapiens, UniProt Q15661); assay: Inactivation rate of mast cell tryptase, incubation method; conditions: for kobs /[I] mast cell tryptase: 25° C., NI = no inhibition; for kobsd /[I] mast cell tryptase: Table I, 0.1M Hepes, 10% glycerol, 10 mM heparin, pH 7.5, 25° C., 7.1% DMSO, NI = no inhibition after 25 min of incubation
mast cell tryptase, sequence (Q15661 31-275): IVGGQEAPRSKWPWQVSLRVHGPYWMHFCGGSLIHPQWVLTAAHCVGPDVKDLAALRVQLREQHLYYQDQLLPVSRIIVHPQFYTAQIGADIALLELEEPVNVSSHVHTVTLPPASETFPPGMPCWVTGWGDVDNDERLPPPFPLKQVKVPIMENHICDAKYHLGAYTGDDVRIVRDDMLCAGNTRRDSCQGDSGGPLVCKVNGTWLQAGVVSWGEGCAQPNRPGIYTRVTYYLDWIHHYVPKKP
Method: as §1, with “271-278}. First order inactivation rate constants (Kobs) were obtained from plots of In vt /vo vs time, and the correlation coefficients were greater then 0.98.” for “271-278}.”
(§13) ^a Inhibition constants were measured in 0.1M Hepes, 0.01M CaCl2
(§14) pH 7.5 for trypsin, granzymes A, and K, and in 0.1M Hepes, 10% glycerol,
(§15) 10 mM heparin, pH 7.5 for mast cell tryptase, and at 25° C. The
(§16) reaction mixtures contained 2% DMSO for trypsin, 7.6% for granzyme A, and
(§17) 7.1% for granzyme K and tryptase. The substrate was Z--Arg--SBzl for
(§18) granzymes and trypsin, and Z--Arg--SBzl or Z--Lys--SBzl for tryptase in
(§19) the presence of DTNB. The inhibitor # concentration ranged from 0.001 to
(§20) ^b NI, no inhibition after 25 min of incubation with enzyme.
as §2, §5
inhibitor # in an mM Hepes, pH 7.5 buffer containing 8 mM heparin, 166 m
NaCl, 0.8 mM Mes, 9% glycerol and 8% DMSO; 0.42 μM factor Xa, 66 μM
as §6, §7, §8, §9, §10, §11, §12

human granzyme A = target: T3, human granzyme A (Homo sapiens, UniProt P12544); assay: Inactivation rate of human granzyme A, incubation method; conditions: Table I; 0.1M Hepes, 0.01M CaCl2 pH 7.5, 25° C., 7.6% DMSO, substrate Z--Arg--SBzl
T3 sequence (P12544 29-262): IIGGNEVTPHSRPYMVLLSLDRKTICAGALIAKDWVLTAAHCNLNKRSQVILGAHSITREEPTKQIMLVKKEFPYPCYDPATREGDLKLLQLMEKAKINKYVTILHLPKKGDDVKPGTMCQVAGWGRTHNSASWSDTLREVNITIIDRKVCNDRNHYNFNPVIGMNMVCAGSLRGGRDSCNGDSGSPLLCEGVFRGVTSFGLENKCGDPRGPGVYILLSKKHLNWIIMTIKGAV
Method: as §1, with “271-278}. First order inactivation rate constants (Kobs) were obtained from plots of In vt /vo vs time, and the correlation coefficients were greater then 0.98.” for “271-278}.”
as §13, §14, §15, §16, §17, §18, §19, §20

bovine trypsin [2] = target: T1, bovine trypsin; assay: Inactivation rate of bovine trypsin, incubation method; conditions: for kobsd /[I] bovine trypsin: Table I, 0.1M Hepes, 0.01M CaCl2 pH 7.5, 25° C., 2% DMSO, substrate Z--Arg--SBzl, NI = no inhibition after 25 min; for kobs /[I] bovine trypsin: Table II, 0.13 μM trypsin, 0.25-42 μM inhibitor, 80 mM Hepes pH 7.5, 1 mM CaCl2, 8% DMSO, 25° C., NI = no inhibition
Method: as §1, with “271-278}. First order inactivation rate constants (Kobs) were obtained from plots of In vt /vo vs time, and the correlation coefficients were greater then 0.98.” for “271-278}.”
as §13, §14, §15, §16, §17, §18, §19, §20, §2, §3
composed of: 0.13 μM trypsin, 0.25-42 μM inhibitor in an 80 mM
as §4, §6, §7, §8, §9, §10, §11, §12

rat granzyme A = assay: Inactivation rate of rat granzyme A, incubation method; conditions: Table I; 0.1M Hepes, 0.01M CaCl2 pH 7.5, 25° C., 7.6% DMSO, substrate Z--Arg--SBzl
Method: as §1, with “271-278}. First order inactivation rate constants (Kobs) were obtained from plots of In vt /vo vs time, and the correlation coefficients were greater then 0.98.” for “271-278}.”
as §13, §14, §15, §16, §17, §18, §19, §20

rat granzyme K = target: T4, rat granzyme K (Rattus norvegicus, UniProt P49864); assay: Inactivation rate of rat granzyme K, incubation method; conditions: Table I; 0.1M Hepes, 0.01M CaCl2 pH 7.5, 25° C., 7.1% DMSO, substrate Z--Arg--SBzl; NI = no inhibition after 25 min of incubation
T4 sequence (P49864 26-258): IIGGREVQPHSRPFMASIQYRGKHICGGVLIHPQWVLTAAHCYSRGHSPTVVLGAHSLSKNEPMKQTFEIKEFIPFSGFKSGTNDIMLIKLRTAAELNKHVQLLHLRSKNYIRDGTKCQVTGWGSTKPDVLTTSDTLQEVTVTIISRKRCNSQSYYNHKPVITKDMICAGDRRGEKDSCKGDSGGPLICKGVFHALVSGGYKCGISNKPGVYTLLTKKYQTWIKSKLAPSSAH
Method: as §1, with “271-278}. First order inactivation rate constants (Kobs) were obtained from plots of In vt /vo vs time, and the correlation coefficients were greater then 0.98.” for “271-278}.”
as §13, §14, §15, §16, §17, §18, §19, §20

[3] = Table III, enzyme 0.06-0.5 μM, inhibitor 0.25-42 μM, 9% DMSO
[4] = Table II, 0.07 μM thrombin, 0.25-42 μM inhibitor, 80 mM Hepes pH 7.5, 428 mM NaCl, 8% DMSO
[5] = Table II, 0.07 μM tryptase, 20-66 μM inhibitor, Hepes pH 7.5, heparin, 9% glycerol, 8% DMSO

Row | Structure (SMILES) | kobs /[I] bovine trypsin (bovine trypsin [1]) | kobs /[I] human thrombin (human thrombin; [3]) | kobs /[I] mast cell tryptase (mast cell tryptase; [3]) | kobs /[I] human thrombin (human thrombin; [4]) | kobsd /[I] human granzyme A (human granzyme A) | kobsd /[I] mast cell tryptase (mast cell tryptase) | kobs /[I] mast cell tryptase (mast cell tryptase; [5]) | kobsd /[I] bovine trypsin (bovine trypsin [2]) | kobs /[I] bovine trypsin (bovine trypsin [2]) | kobsd /[I] rat granzyme A (rat granzyme A) | kobsd /[I] rat granzyme K (rat granzyme K)
1 | CC(C)C(NC(=O)CCC(=O)O)C(=O)N1CCCC1C(=O)NC(CCCCN)P(=O)(Oc1ccccc1)Oc1ccccc1 (mixture of isomers) [Suc--Val--Pro--Lys^P (OPh)2] | 416 ± 28 M⁻¹ s⁻¹ | 3.4 ± 0.4 M⁻¹ s⁻¹ | 0.6 M⁻¹ s⁻¹ |  |  |  |  |  |  |  | 
2 | N=C(N)c1ccc(C(NS(=O)(=O)c2cccc3ccccc23)P(=O)(Oc2ccccc2)Oc2ccccc2)cc1 (racemic) [1-NpSO2-(4-AmPhGly)^P (OPh)2] |  |  |  | 24 ± 3 M⁻¹ s⁻¹ | 330 ± 26 M⁻¹ s⁻¹ | 10 M⁻¹ s⁻¹ | 10 ± 1 M⁻¹ s⁻¹ | 170 ± 34 M⁻¹ s⁻¹ | 170 ± 34 M⁻¹ s⁻¹ | 30 ± 1 M⁻¹ s⁻¹ | 
3 | CC(C)C(NC(=O)CCC(=O)O)C(=O)N1CCCC1C(=O)NC(CCCCCN)P(=O)(Oc1ccccc1)Oc1ccccc1 (mixture of isomers) [Suc--Val--Pro-HomoLys^P (OPh)2] | 51 ± 10 M⁻¹ s⁻¹ | 1.6 ± 0.3 M⁻¹ s⁻¹ | 4.1 ± 0.4 M⁻¹ s⁻¹ |  |  |  |  |  |  |  | 
4 | Cl.N=C(N)c1ccc(C(NC(=O)[C@@H]2CCCN2C(=O)c2ccccc2Oc2ccccc2)P(=O)(Oc2ccccc2)Oc2ccccc2)cc1 (stereo partly shown) [Diphenyl N-(N-(2-Phenoxybenzoylprolyl))amino(4-amidinophenyl)methanephosphonate Hydrochloride] |  |  |  | 42,400 ± 4190 M^-1 s^-1 | 610 ± 88 M⁻¹ s⁻¹ | 0.9 M⁻¹ s⁻¹ | 0.9 M⁻¹ s⁻¹ | 7760 ± 310 M⁻¹ s⁻¹ | 7,760 ± 310 M^-1 s^-1 |  | 60 ± 5 M⁻¹ s⁻¹
5 | N=C(N)c1ccc(C(NC(=O)C2CCCN2C(=O)CNS(=O)(=O)Cc2ccccc2)P(=O)(Oc2ccccc2)Oc2ccccc2)cc1 (mixture of isomers) [PhCH2 SO2 --Gly--Pro-(4-AmPhGly)^P (OPh)2] |  |  |  | 17,200 ± 128 M^-1 s^-1 | 3650 ± 180 M⁻¹ s⁻¹ | 2 M⁻¹ s⁻¹ | 2.0 ± 0.1 M⁻¹ s⁻¹ | 37060 ± 986 M⁻¹ s⁻¹ | 37,060 ± 986 M^-1 s^-1 |  | 87 M⁻¹ s⁻¹
6 | CC(C)(C)OC(=O)NC(CC(N)=O)C(=O)NC(CCCCN)P(=O)(Oc1ccccc1)Oc1ccccc1 (mixture of isomers) [Boc--Asn--Lys^P (OPh)2] | 3 M⁻¹ s⁻¹ |  |  |  |  |  |  |  |  |  | 
7 | N=C(N)c1ccc(C(NC(=O)CCC(=O)O)P(=O)(Oc2ccccc2)Oc2ccccc2)cc1 (stereo not shown) [Suc-(4-AmPhGly)^P (OPh)2] |  |  |  | 2 M⁻¹ s⁻¹ | 857 M⁻¹ s⁻¹ | 0.2 M⁻¹ s⁻¹ | 0.2 M⁻¹ s⁻¹ | 45 ± 3 M⁻¹ s⁻¹ | 45 ± 3 M⁻¹ s⁻¹ |  | 0.3 ± 0.07 M⁻¹ s⁻¹
8 | Cl.N=C(N)c1ccc(C(NC(=O)[C@@H]2CCCN2C(=O)OCc2ccccc2)P(=O)(Oc2ccccc2)Oc2ccccc2)cc1 (stereo partly shown) [Cbz--Pro-(4-AmPhGly)^P (OPh)2, Diphenyl N-(N-benzyloxycarbonylprolyl)amino(4-amidinophenyl)methanephosphonate hydrochloride] |  |  |  | 640 ± 86 M⁻¹ s⁻¹ | 790 ± 17 M⁻¹ s⁻¹ | 1.2 M⁻¹ s⁻¹ | 1 M⁻¹ s⁻¹ | 910 ± 81 M⁻¹ s⁻¹ | 910 ± 81 M⁻¹ s⁻¹ |  | 34 ± 4 M⁻¹ s⁻¹
9 | C[C@H](NC(=O)[C@@H]1CCCN1C(=O)OCc1ccccc1)C(=O)NC(c1ccc(C(=N)N)cc1)P(=O)(Oc1ccccc1)Oc1ccccc1 (stereo partly shown) [Cbz--Pro--Ala-(4-AmPhGly)^P (OPh)2] |  |  |  | 70 ± 2 M⁻¹ s⁻¹ | 380 ± 18 M⁻¹ s⁻¹ | 1 M⁻¹ s⁻¹ | 1 ± 0 M⁻¹ s⁻¹ | 240 ± 10 M⁻¹ s⁻¹ | 240 ± 10 M⁻¹ s⁻¹ |  | 5 M⁻¹ s⁻¹
10 | CC(NC(=O)C(CC(=O)O)NC(=O)OCc1ccccc1)C(=O)NC(c1ccc(C(=N)N)cc1)P(=O)(Oc1ccccc1)Oc1ccccc1 (mixture of isomers) [Cbz--Asp--Ala-(4-AmPhGly)^P (OPh)2] |  |  |  | 110 ± 12 M⁻¹ s⁻¹ | 240 ± 5 M⁻¹ s⁻¹ | 0.7 M⁻¹ s⁻¹ |  | 2550 ± 145 M⁻¹ s⁻¹ | 2,550 ± 145 M^-1 s^-1 |  | 6 M⁻¹ s⁻¹
